According to patent US10143746B2, “Immunomodulators” (BRISTOL-MYERS SQUIBB COMPANY, priority 2016, dated 2018):
Where a SMILES comes first, the peptide text is derived from it. Bridges are numbered along the chain shown (N, C = ends). [ ]: non-standard residue; d: D form. Hyp = O=C(O)[C@@H]1C[C@@H](O)CN1; NMeNle = CCCC[C@H](NC)C(=O)O; NMeA = CN[C@@H](C)C(=O)O; Orn = NCCC[C@H](N)C(=O)O; Dab = NCC[C@H](N)C(=O)O; Sar = CNCC(=O)O

Target: PD-1-Ig binding to PD-L1-TVMV-His (PD-L1-His) (Homo sapiens (Human), UniProt Q9NZQ7)
Sequence (Q9NZQ7 other isoform, or with tags, fused parts or gaps): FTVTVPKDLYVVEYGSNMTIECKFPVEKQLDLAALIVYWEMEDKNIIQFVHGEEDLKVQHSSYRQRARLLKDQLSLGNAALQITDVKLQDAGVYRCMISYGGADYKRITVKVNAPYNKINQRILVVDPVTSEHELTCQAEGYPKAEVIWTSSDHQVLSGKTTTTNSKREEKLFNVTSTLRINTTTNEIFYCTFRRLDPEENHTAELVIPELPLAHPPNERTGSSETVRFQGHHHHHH
Experiment: PD-1/PD-L1 Homogenous Time-Resolved Fluorescence (HTRF) binding assay (PD-1-Ig/PD-L1-His)
Conditions: PD-1-Ig (20 nM)/PD-L1-His (10 nM)
Excerpt: Methods for Testing the Ability of Macrocyclic Compounds to Compete for the Binding of PD-1 to PD-L1 Using Homogenous Time-Resolved Fluorescence (HTRF) Binding Assays
The ability of the macrocyclic compounds of the present disclosure to bind to PD-L1 was investigated using a PD-1/PD-L1 Homogenous Time-Resolved Fluorescence (HTRF) binding assay.
Homogenous Time-Resolved Fluorescence (HTRF) Assays of Binding of Soluble PD-1 to Soluble PD-L1. Soluble PD-1 and soluble PD-L1 refers to proteins with carboxyl-end truncations that remove the transmembrane-spanning regions and are fused to heterologous sequences, specifically the Fc portion of the human immunoglobulin G sequence (Ig) or the hexahistidine epitope tag (His). All binding studies were performed in an HTRF assay buffer consisting of dPBS supplemented with 0.1% (w/v) bovine serum albumin and 0.05% (v/v) Tween-20. For the PD-1-Ig/PD-L1-His binding assay, inhibitors were pre-incubated with PD-L1-His (10 nM final) for 15 m in 4 μl of assay buffer, followed by addition of PD-1-Ig (20 nM final) in 1 μl of assay buffer and further incubation for 15 m. PD-L1 fusion proteins from either human, cynomologous macaques, mouse, or other species were used. HTRF detection was achieved using europium crypate-labeled anti-Ig monoclonal antibody (1 nM final) and allophycocyanin (APC) labeled anti-His monoclonal antibody (20 nM final). Antibodies were diluted in HTRF detection buffer and 5 μl was dispensed on top of binding reaction. […] Additional binding assays were established between PD-1-Ig/PD-L2-His (20 and 5 nM, respectively), CD80-His/PD-L1-Ig (100 and 10 nM, respectively) and CD80-His/CTLA4-Ig (10 and 5 nM, respectively).
Recombinant Proteins. […] Human PD-L2-His (Sino Biologicals), CD80-His (Sino Biologicals), CTLA4-Ig (RnD Systems) were all obtained through commercial sources.

SMILES	IC50 (range classes)	IC50 (numeric values)
CCCC[C@H]1C(=O)N(C)[C@@H](CCCC)C(=O)N[C@@H](CCCNC(=N)N)C(=O)N[C@H](C(=O)NCC(N)=O)CSCC(=O)N[C@@H](Cc2ccc(O)cc2)C(=O)N(C)[C@@H](C)C(=O)N[C@H]2CCNC(=O)CC[C@H](NC(=O)[C@H](C)NC(=O)[C@@H]3CCCN3C2=O)C(=O)N2C[C@H](O)C[C@H]2C(=O)N[C@@H](Cc2c[nH]c3ccccc23)C(=O)N[C@@H](CO)C(=O)N[C@@H](Cc2c[nH]c3ccccc23)C(=O)N1C [Example 1400] ({CH2CO}-Y[NMeA][Dab]PAE[Hyp]WSW[NMeNle][NMeNle]RCG-NH2; lactam 3-6; thioether N-14)	10 to 99 nM	
CCCC[C@H]1C(=O)N(C)[C@@H](CCCC)C(=O)N[C@@H](C)C(=O)N[C@H]2CSCC(=O)N[C@@H](Cc3ccc(O)cc3)C(=O)N(C)[C@@H](C)C(=O)N[C@@H](CC(N)=O)C(=O)N3CCC[C@H]3C(=O)N[C@@H](Cc3cn(C(=O)C(F)(F)F)cn3)C(=O)N[C@@H](CC(C)C)C(=O)N[C@@H](CCCNC(=O)CNC2=O)C(=O)N[C@@H](Cc2c[nH]c3ccccc23)C(=O)N[C@@H](CO)C(=O)N[C@@H](Cc2c[nH]c3ccccc23)C(=O)N1C [Example 1401]	10 to 99 nM	
CCCC[C@H]1C(=O)N(C)[C@@H](CCCC)C(=O)N[C@@H](CCCNC(=N)N)C(=O)N[C@H](C(=O)NCC(N)=O)CSCC(=O)N[C@@H](Cc2ccc(O)cc2)C(=O)N(C)[C@@H](C)C(=O)N[C@H]2CCCNC(=O)CC[C@H](NC(=O)[C@H](C)NC(=O)[C@@H]3CCCN3C2=O)C(=O)N2C[C@H](O)C[C@H]2C(=O)N[C@@H](Cc2c[nH]c3ccccc23)C(=O)N[C@@H](CO)C(=O)N[C@@H](Cc2c[nH]c3ccccc23)C(=O)N1C [Example 1402] ({CH2CO}-Y[NMeA][Orn]PAE[Hyp]WSW[NMeNle][NMeNle]RCG-NH2; lactam 3-6; thioether N-14)	10 to 99 nM	
CCCC[C@H]1C(=O)N(C)[C@@H](CCCC)C(=O)N[C@@H](C)C(=O)N[C@H](C(=O)NCC(N)=O)CSCC(=O)N[C@@H](Cc2ccc(O)cc2)C(=O)N(C)[C@@H](C)C(=O)N[C@H]2CCCNC(=O)CC[C@@H](NC(=O)[C@H](Cc3cn(C(=O)C(F)(F)F)cn3)NC(=O)[C@@H]3CCCC3C2=O)C(=O)N2C[C@H](O)C[C@H]2C(=O)N[C@@H](Cc2c[nH]c3ccccc23)C(=O)N[C@@H](CO)C(=O)N[C@@H](Cc2c[nH]c3ccccc23)C(=O)N1C (some centres unmarked) [Example 1403]		7 nM
CCCC[C@H]1C(=O)N(C)[C@@H](CCCC)C(=O)N[C@@H](C)C(=O)N[C@H](C(=O)NCC(N)=O)CSCC(=O)N[C@@H](Cc2ccc(O)cc2)C(=O)N(C)[C@@H](C)C(=O)N[C@H]2CC(=O)NCC[C@H](NC(=O)[C@H](Cc3cnc[nH]3)NC(=O)[C@@H]3CCCN3C2=O)C(=O)N2C[C@H](O)C[C@H]2C(=O)N[C@@H](Cc2c[nH]c3ccccc23)C(=O)N[C@@H](CO)C(=O)N[C@@H](Cc2c[nH]c3ccccc23)C(=O)N1C [Example 1500] ({CH2CO}-Y[NMeA]DPH[Dab][Hyp]WSW[NMeNle][NMeNle]ACG-NH2; lactam 3-6; thioether N-14)	10 to 99 nM	
CCCC[C@H]1C(=O)N(C)[C@@H](CCCC)C(=O)N[C@@H](C)C(=O)N[C@H](C(=O)NCC(N)=O)CSCC(=O)N[C@@H](Cc2ccc(O)cc2)C(=O)N(C)[C@@H](C)C(=O)N[C@H]2CCC(=O)NCC[C@H](NC(=O)[C@H](Cc3cnc[nH]3)NC(=O)[C@@H]3CCCN3C2=O)C(=O)N2C[C@H](O)C[C@H]2C(=O)N[C@@H](Cc2c[nH]c3ccccc23)C(=O)N[C@@H](CO)C(=O)N[C@@H](Cc2c[nH]c3ccccc23)C(=O)N1C [Example 1501] ({CH2CO}-Y[NMeA]EPH[Dab][Hyp]WSW[NMeNle][NMeNle]ACG-NH2; lactam 3-6; thioether N-14)	10 to 99 nM	
CCCC[C@H]1C(=O)N(C)[C@@H](CCCC)C(=O)N[C@@H](C)C(=O)N[C@H](C(=O)NCC(N)=O)CSCC(=O)N[C@@H](Cc2ccc(O)cc2)C(=O)N(C)[C@@H](C)C(=O)N[C@H]2CCNC(=O)CC[C@H](NC(=O)[C@H](Cc3cnc[nH]3)NC(=O)[C@@H]3CCCN3C2=O)C(=O)N2C[C@H](O)C[C@H]2C(=O)N[C@@H](Cc2c[nH]c3ccccc23)C(=O)N[C@@H](CO)C(=O)N[C@@H](Cc2c[nH]c3ccccc23)C(=O)N1C [Example 1504] ({CH2CO}-Y[NMeA][Dab]PHE[Hyp]WSW[NMeNle][NMeNle]ACG-NH2; lactam 3-6; thioether N-14)	10 to 99 nM	
CCCC[C@H]1C(=O)N(C)[C@@H](CCCC)C(=O)N[C@@H](C)C(=O)N[C@H](C(=O)NCC(N)=O)CSCC(=O)N[C@@H](Cc2ccc(O)cc2)C(=O)N(C)[C@@H](C)C(=O)N[C@H]2CCC(=O)NCCC[C@H](NC(=O)[C@H](Cc3cnc[nH]3)NC(=O)[C@@H]3CCCN3C2=O)C(=O)N2C[C@H](O)C[C@H]2C(=O)N[C@@H](Cc2c[nH]c3ccccc23)C(=O)N[C@@H](CO)C(=O)N[C@@H](Cc2c[nH]c3ccccc23)C(=O)N1C [Example 1505] ({CH2CO}-Y[NMeA]EPH[Orn][Hyp]WSW[NMeNle][NMeNle]ACG-NH2; lactam 3-6; thioether N-14)	10 to 99 nM	
CCCC[C@H]1C(=O)N(C)[C@@H](CCCC)C(=O)N[C@@H](C)C(=O)N[C@H](C(=O)NCC(N)=O)CSCC(=O)N[C@@H](Cc2ccc(O)cc2)C(=O)N(C)[C@@H](C)C(=O)N[C@H]2CCCNC(=O)CC[C@H](NC(=O)[C@H](Cc3cnc[nH]3)NC(=O)[C@@H]3CCCN3C2=O)C(=O)N2C[C@H](O)C[C@H]2C(=O)N[C@@H](Cc2c[nH]c3ccccc23)C(=O)N[C@@H](CO)C(=O)N[C@@H](Cc2c[nH]c3ccccc23)C(=O)N1C [Example 1506] ({CH2CO}-Y[NMeA][Orn]PHE[Hyp]WSW[NMeNle][NMeNle]ACG-NH2; lactam 3-6; thioether N-14)	10 to 99 nM	
CCCC[C@H]1C(=O)N(C)[C@@H](CCCC)C(=O)N[C@@H](C)C(=O)N[C@H](C(=O)NCC(N)=O)CSCC(=O)N[C@@H](Cc2ccc(O)cc2)C(=O)N(C)[C@@H](C)C(=O)N[C@H]2CC(=O)NCCCC[C@H](NC(=O)[C@H](Cc3cnc[nH]3)NC(=O)[C@@H]3CCCN3C2=O)C(=O)N2C[C@H](O)C[C@H]2C(=O)N[C@@H](Cc2c[nH]c3ccccc23)C(=O)N[C@@H](CO)C(=O)N[C@@H](Cc2c[nH]c3ccccc23)C(=O)N1C [Example 1507] ({CH2CO}-Y[NMeA]DPHK[Hyp]WSW[NMeNle][NMeNle]ACG-NH2; lactam 3-6; thioether N-14)	10 to 99 nM	
CCCC[C@H]1C(=O)N(C)[C@@H](CCCC)C(=O)N[C@@H](C)C(=O)N[C@H](C(=O)NCC(N)=O)CSCC(=O)N[C@@H](Cc2ccc(O)cc2)C(=O)N(C)[C@@H](C)C(=O)N[C@H]2CC(=O)NCCC[C@H](NC(=O)[C@H](Cc3cnc[nH]3)NC(=O)[C@@H]3CCCN3C2=O)C(=O)N2C[C@H](O)C[C@H]2C(=O)N[C@@H](Cc2c[nH]c3ccccc23)C(=O)N[C@@H](CO)C(=O)N[C@@H](Cc2c[nH]c3ccccc23)C(=O)N1C [Example 1508] ({CH2CO}-Y[NMeA]DPH[Orn][Hyp]WSW[NMeNle][NMeNle]ACG-NH2; lactam 3-6; thioether N-14)	10 to 99 nM	
CCCC[C@H]1C(=O)N(C)[C@@H](CCCC)C(=O)N[C@H]2CCC(=O)NCCCC[C@H](NC(=O)[C@H](Cc3c[nH]c4ccccc34)NC(=O)CN(C)C(=O)[C@H](CC(C)C)NC(=O)[C@H](Cc3c[nH]cn3)NC(=O)[C@@H]3CCCN3C(=O)[C@H](CC(N)=O)NC(=O)[C@H](C)N(C)C(=O)[C@H](Cc3ccccc3)NC(=O)CSC[C@@H](C(=O)NCC(N)=O)NC2=O)C(=O)N[C@@H](Cc2c[nH]c3ccccc23)C(=O)N1C [Example 5001] ({CH2CO}-F[NMeA]NPHL[Sar]WKW[NMeNle][NMeNle]ECG-NH2; lactam 9-13; thioether N-14)	3 to 9.9 nM	
CCCC[C@H]1C(=O)N(C)[C@@H](CCCC)C(=O)N[C@H]2CCCCNC(=O)CC[C@H](NC(=O)[C@H](Cc3c[nH]c4ccccc34)NC(=O)CN(C)C(=O)[C@H](CC(C)C)NC(=O)[C@H](Cc3c[nH]cn3)NC(=O)[C@@H]3CCCN3C(=O)[C@H](CC(N)=O)NC(=O)[C@H](C)N(C)C(=O)[C@H](Cc3ccccc3)NC(=O)CSC[C@@H](C(=O)NCC(N)=O)NC2=O)C(=O)N[C@@H](Cc2c[nH]c3ccccc23)C(=O)N1C [Example 5002] ({CH2CO}-F[NMeA]NPHL[Sar]WEW[NMeNle][NMeNle]KCG-NH2; lactam 9-13; thioether N-14)	10 to 99 nM	
CCCC[C@H]1C(=O)N(C)[C@@H](CCCC)C(=O)N[C@H]2CCC(=O)NCCC[C@H](NC(=O)[C@H](Cc3c[nH]c4ccccc34)NC(=O)CN(C)C(=O)[C@H](CC(C)C)NC(=O)[C@H](Cc3c[nH]cn3)NC(=O)[C@@H]3CCCN3C(=O)[C@H](CC(N)=O)NC(=O)[C@H](C)N(C)C(=O)[C@H](Cc3ccccc3)NC(=O)CSC[C@@H](C(=O)NCC(N)=O)NC2=O)C(=O)N[C@@H](Cc2c[nH]c3ccccc23)C(=O)N1C [Example 5003] ({CH2CO}-F[NMeA]NPHL[Sar]W[Orn]W[NMeNle][NMeNle]ECG-NH2; lactam 9-13; thioether N-14)	10 to 99 nM	
